# According to patent US20250145631A1, “HETEROCYCLIC COMPOUND ACTING ON G12D MUTANT KRAS PROTEIN” (Astellas Pharma Inc., priority 2022, published 2025):
# How the values were obtained:
# Format in all cases: cell-based
# KRAS G12D = molecular target: T1, KRAS G12D (Homo sapiens, UniProt P01116, G12D); experiment: KRAS degradation activity by Cell ELISA in AsPC-1 cells (Test Example 1); conditions: for Dmax: ASPC1, overnight treatment, read-out: Dmax (degradation rate at the concentration showing highest degradation); for Dmax / DC50: Cell ELISA; for DC50: overnight treatment, read-out: DC50 (50% degradation concentration of KRAS)
# T1 construct: host or cells: AsPC-1 (human pancreatic cancer line)
# Experimental: The KRAS degradation activity of test compounds was evaluated by measuring the expression levels of KRAS G12D by Cell ELISA.
# AsPC-1 cells were seeded at 20 μL per well on 384-well plates (from Greiner bio-one) to give 2.0×10^4 cells per well. As for the cell culture conditions, RPMI 1640 (from Sigma-Aldrich) medium containing 10% fetal bovine serum (from Cytiva) was used in the presence of 5% CO2 at 37° C.
# The next day, the test compounds (10 points having final concentrations in the range of 10 μM to 0.3 nM) and DMSO (from FUJIFILM Wako Pure Chemical Corporation), which was the solvent for the test compounds, as a negative control were diluted 500-fold with a fresh medium and were added at 20 μL per well. The cells were cultured overnight. The next day, the culture supernatant was removed, and 4% paraformaldehyde phosphate buffer (from FUJIFILM Wako Pure Chemical Corporation) was added at 20 μL per well. The plates were allowed to stand for 30 minutes at room temperature to thus immobilize the cells. Then, the supernatant was removed, and 0.1% Triton X-100 (from Amersham Biosciences)-containing Phosphate buffered saline (PBS; from FUJIFILM Wako Pure Chemical Corporation) was added at 20 μL per well. After allowing to stand for 10 minutes at room temperature, the supernatant was removed. PBS was added at 25 μL per well, and the supernatant was removed to thus wash each well. The washing was performed twice in total. Next, the supernatant was removed, and 0.5% sodium dodecyl sulfate (SDS; from Invitrogen)-containing PBS was added at 20 μL per well. After allowing to stand at room temperature for 10 minutes, the supernatant was removed by a centrifugal operation (using a centrifugal dehydrator machine, the supernatant was removed by the same method hereinafter). PBS was added at 25 μL per well, and the supernatant was removed to thus wash each well. The washing was performed twice in total. The supernatant was removed, and blocking solution (Intercept Blocking Buffer; from Li—COR Biosciences) was added at 20 μL per well. After allowing to stand for 30 minutes at room temperature, the supernatant was removed, and a solution obtained by diluting anti-β-actin antibody (Anti-beta Actin antibody [mAbcam 8226]-Loading Control; from abcam) 1,000-fold with blocking solution and a solution obtained by diluting anti-Ras (G12D Mutant Specific) antibody (Ras (G12D Mutant Specific) (D8H7) Rabbit mAb #14429; from Cell Signaling Technology) and anti-β-actin antibody (from abcam) 1,000-fold with blocking solution were respectively added to positive control wells and the other wells at 15 μL per well as a primary antibody. The plates were allowed to stand overnight at 4° C.
# The next day, the supernatant was removed. PBS was added at 25 μL per well, and the supernatant was removed to thus wash each well. The washing was performed twice in total. The supernatant was removed, and a solution obtained by diluting Donkey anti-Mouse IgG H&L (IRDye 680RD) (from Li—COR Biosciences) and Goat anti-Rabbit IgG H&L (IRDye 800CW) (from Li—COR Biosciences) 1,000-fold with blocking solution was added at 15 μL per well as a secondary antibody. A solution obtained by diluting Donkey anti-Mouse IgG H&L (IRDye 680RD) (from Li—COR Biosciences) 1,000-fold with blocking solution was added to a positive control well as a secondary antibody. After allowing to stand for 1 hour at room temperature, the supernatant was removed. PBS was added at […], and the supernatant was removed to thus wash each well. The washing was performed twice in total. After removing the supernatant, the plates were dried with air at room temperature for 2 hours or more, and the 700 nm and 800 nm fluorescent signals were measured with Aerius (from Li—COR Biosciences). […]
# [1] = tested on: human G12D mutant KRAS-positive pancreatic cancer line AsPC-1; experiment: Non-anchorage-dependent cell growth inhibitory effect, spheroid 3D culture (Test Example 3); conditions: ASPC1, 144 h, AsPC-1 spheroid 3D culture, 6 days; for IC50: CellTiter Glo 2.0, read-out: IC50 (non-anchorage-dependent cell growth inhibition); for inhibition at 10 µM: read-out: cell growth inhibition at the highest concentration evaluated
# Experimental: The non-anchorage-dependent cell growth inhibitory effect of test compounds was evaluated by spheroid 3D cell culture.
# AsPC-1 cells were seeded on low-cell-adhesive round bottom 384-well plates (PrimeSurface: from Sumitomo Bakelite) at 20 μL (or […])/well to give 5×10^2 cells per well. As for the cell culture conditions, RPMI 1640 medium containing 10% fetal bovine serum was used in the presence of 5% CO2 at 37° C.
# The next day, the test compounds (10 points or 6 points having final concentrations in the range of 10 μM to 0.3 nM) and DMSO, which was the solvent for the test compounds, as a negative control were diluted 500-fold (or 100-fold) with a fresh medium and were added at 20 μL (or […]) per well. After culturing in the presence of 5% C02 at 37° C. for 6 days, CellTiter Glo 2.0 (from Promega) was added at 20 μL per well. After stirring with a plate mixer (from FINEPCR) at normal temperature for 1 hour, the luminescent signals were measured with ARVO X3 (from PerkinElmer).
# (§1) With the signaling value in treatment with DMSO taken as 100% and with the signaling value in the medium alone without cells taken as 0%, the 50% inhibitory concentration values (IC50) were calculated by Sigmoid-Emax nonlinear regression analysis. The calculated 50% inhibition represents the inhibition at the highest concentration evaluated (10 μM) for a compound that exceeds the concentration in the evaluation range.
# (§2) In the tables presented below, Ex represents Example No. The IC50 of Ex. 13, Ex. 15, and Ex. 16 were calculated using the molecular weights as tetrahydrochloride, and the IC50 of Ex. 14 was calculated using the molecular weight as trihydrochloride.
# [2] = tested on: phosphorylation of ERK (Thr202/Tyr204); experiment: ERK phosphorylation inhibitory effect by Cell ELISA in AsPC-1 cells (Test Example 2); conditions: Homo sapiens; for IC50: ASPC1, overnight treatment, Cell ELISA, read-out: IC50 (ERK phosphorylation inhibition)
# Experimental: The ERK phosphorylation inhibitory effect of test compounds was evaluated by measuring phosphorylation of threonine 202 (Thr202) and tyrosine 204 (Tyr204) of ERK located downstream of the KRAS signal by Cell ELISA.
# AsPC-1 cells were seeded on 384-well plates at 20 µL/well to give 2.0×10^4 cells per well. As for the cell culture conditions, RPMI 1640 medium containing 10% fetal bovine serum was used in the presence of 5% CO2 at 37° C.
# The next day, the test compounds (10 points having final concentrations in the range of 10 μM to 0.3 nM), trametinib (MEK inhibitor) of a final concentration of […] as positive control and DMSO, which was the solvent for the test compounds, as negative control were diluted 500-fold with a fresh medium and were added at 20 μL per well. The cells were cultured overnight. After culturing, 30% glyoxal solution (40% glyoxal [from Nacalai Tesque]was diluted with PBS) was quickly added at 30 μL per well, and the plates were allowed to stand for 120 minutes at room temperature to thus immobilize the cells. Then, the plates were centrifuged to remove the supernatant (using a centrifugal dehydrator machine, the supernatant was removed by the same method hereinafter), and 0.10% Triton X-100-containing PBS was added at 20 μL per well. After allowing to stand for 10 minutes at room temperature, the supernatant was removed, and the same operation was further repeated. Next, 0.5% SDS-containing PBS was added at 20 μL per well, and after allowing to stand at room temperature for 30 minutes, the supernatant was removed. Subsequently, blocking solution (Intercept Blocking Buffer) was added at 20 μL per well, and the plates were allowed to stand for 1 hour at room temperature. The supernatant was removed, and an ERK (Thr202/Tyr204) phosphorylation antibody (Phospho-p44/42 MAPK (Erk 1/2) (Thr202/Tyr204) (D13.14.4E) XP Rabbit mAb; from Cell Signaling Technology) diluted 2,500-fold with blocking solution was added at 15 μL per well as a primary antibody. The plates were allowed to stand at 4° C. overnight.
# The next day, the supernatant was removed. 0.05% Tween-20 (from Thermo Fisher Scientific)-containing PBS was added at 50 μL per well, and the supernatant was removed to thus wash each well. The washing was performed three times in total. After washing, Goat anti-Rabbit IgG H&L (IRDye 800CW) diluted 1,000-fold with blocking solution was added at 15 μL per well as a secondary antibody, and the plates were allowed to stand for 1 hour at room temperature. The supernatant was removed, and each well was washed three times with 0.05% Tween-20-containing PBS in the same manner as after the primary antibody reaction. After removing the supernatant, the plates were dried with air at room temperature for 3 hours or more, and the 800-nm fluorescent signals were measured with Aerius.
# as §1, with “value at the time of addition of” for “value in treatment with”, “value at” for “value in”, “the time of addition of […] trametinib” for “the medium alone without cells”
# as §2
# T1 sequence (P01116 1-188 isoform P01116-2 G12D): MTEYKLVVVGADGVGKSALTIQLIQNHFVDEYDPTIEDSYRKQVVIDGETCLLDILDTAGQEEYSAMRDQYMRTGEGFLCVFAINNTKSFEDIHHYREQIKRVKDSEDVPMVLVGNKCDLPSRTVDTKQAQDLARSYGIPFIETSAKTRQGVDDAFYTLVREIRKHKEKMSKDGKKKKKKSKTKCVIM
SMILES,Dmax (KRAS G12D),DC50 (KRAS G12D),IC50 [1],IC50 [2],degradation rate at the highest concentration evaluated (printed in DC50 column) (KRAS G12D; at 10 μM),inhibition at 10 µM [1],"inhibition at 10 µM ([2]; ASPC1, at 10 μM, read-out: ERK phosphorylation inhibition at the highest concentration evaluated)"
Cc1c(F)cc2[nH]ncc2c1-c1c(C2CC2)cc2c(N3C[C@@H]4C[C@H]3CN4)nc(OC3CCOCC3)nc2c1OCc1ccc(C(=O)N2CCN(Cc3ccc4c(c3)C(=O)N(C3CCC(=O)NC3=O)C4=O)CC2)cc1 (stereo partly drawn) [Example 1],59%,1950 nM,,3360 nM,,37%,
Cc1c(F)cc2[nH]ncc2c1-c1c(C2CC2)cc2c(N3C[C@@H]4C[C@H]3CN4)nc(OC3CCOCC3)nc2c1OCc1ccc(C(=O)N2CCN(Cc3ccc4c(c3)oc(=O)n4C3CCC(=O)NC3=O)CC2)cc1 (stereo partly drawn) [Example 3],83%,53 nM,120 nM,94 nM,,,
Cc1c(F)cc2[nH]ncc2c1-c1c(C2CC2)cc2c(N3C[C@@H]4C[C@H]3CN4)nc(OC3CCOCC3)nc2c1OCc1ccc(C(=O)N2C[C@H]3C[C@@H]2CN3Cc2ccc3c(c2)C(=O)N(C2CCC(=O)NC2=O)C3=O)cc1 (stereo partly drawn) [Example 4],40%,,,,40% at 10 μM,22%,33%
"Cc1c(F)cc2[nH]ncc2c1-c1c(C2CC2)cc2c(N3C[C@@H]4C[C@H]3CN4)nc(OC3CCOCC3)nc2c1OCc1ccc(C(=O)N2C3CCC2CN(Cc2ccc4c(c2)C(=O)N(C2CCC(=O)NC2=O)C4=O)C3)cc1 (stereo partly drawn) [Example 5, 5-[(8-{4-[({(7M)-6-cyclopropyl-4-[(1S,4S)-2,5-diazabicyclo[2.2.1]heptan-2-yl]-7-(6-fluoro-5-methyl-1H-indazol-4-yl)-2-[(oxan-4-yl)oxy]quinazolin-8-yl}oxy)methyl]benzoyl}-3,8-diazabicyclo[3.2.1]octan-3-yl)methyl]-2-(2,6-dioxopiperidin-3-yl)-1H-isoindole-1,3(2H)-dione]",84%,308 nM,490 nM,329 nM,,,
Cc1c(F)cc2[nH]ncc2c1-c1c(C2CC2)cc2c(N3C[C@@H]4C[C@H]3CN4)nc(OC3CCOCC3)nc2c1OCc1ccc(C(=O)N2CCN(Cc3ccc4c(c3)n(C)c(=O)n4C3CCC(=O)NC3=O)CC2)cc1 (stereo partly drawn) [Example 7],80%,35 nM,73 nM,60 nM,,,
Cc1c(F)cc2[nH]ncc2c1-c1c(C2CC2)cc2c(N3C[C@@H]4C[C@H]3CN4)nc(OC3CCOCC3)nc2c1OCc1ccc(C(=O)N2CCN(Cc3ccc4c(c3)n(C)c(=O)n4C3CCC(=O)NC3=O)C[C@H]2C)cc1 (stereo partly drawn) [Example 9],65%,55 nM,90 nM,69 nM,,,

# Further compounds by falling DC50 (KRAS G12D), results first:
Dmax (KRAS G12D),DC50 (KRAS G12D),IC50 [1],IC50 [2],degradation rate at the highest concentration evaluated (printed in DC50 column) (KRAS G12D; at 10 μM),SMILES,inhibition at 10 µM [1],"inhibition at 10 µM ([2]; ASPC1, at 10 μM, read-out: ERK phosphorylation inhibition at the highest concentration evaluated)"
59%,4900 nM,,4770 nM,,Cc1c(F)cc2[nH]ncc2c1-c1c(C2CC2)cc2c(N3C[C@@H]4C[C@H]3CN4)nc(OC3CCOCC3)nc2c1OCc1ccc(C(=O)N2CCC(CN3CCN(c4cc5c(cc4F)C(=O)N(C4CCC(=O)NC4=O)C5=O)CC3)CC2)cc1 (stereo partly drawn) [Example 2],55%,
49%,2730 nM,,3940 nM,,Cc1c(F)cc2[nH]ncc2c1-c1c(C2CC2)cc2c(N3C[C@@H]4C[C@H]3CN4)nc(OC3CCOCC3)nc2c1OCc1ccc(C(=O)N2CCN(Cc3cccc4c3oc(=O)n4C3CCC(=O)NC3=O)CC2)cc1 (stereo partly drawn) [Example 6],50%,
85%,202 nM,476 nM,200 nM,,"Cc1c(F)cc2[nH]ncc2c1-c1c(C2CC2)cc2c(N3C[C@@H]4C[C@H]3CN4)nc(OC3CCOCC3)nc2c1OCc1ccc(C(=O)N2CCN(Cc3ccn4c(N5CCC(=O)NC5=O)cnc4c3)C[C@@H]2C)cc1 (atropisomer, axis not shown; (M)) [Example 34, 1-(7-{[(3S)-4-{4-[({(7M)-6-cyclopropyl-4-[(1S,4S)-2,5-diazabicyclo[2.2.1]heptan-2-yl]-7-(6-fluoro-5-methyl-1H-indazol-4-yl)-2-[(oxan-4-yl)oxy]quinazolin-8-yl}oxy)methyl]benzoyl}-3-methylpiperazin-1-yl]methyl}imidazo[1,2-a]pyridin-3-yl)-1,3-diazinane-2,4-dione]",,
